The compounds below were run against T1, C-X-C chemokine receptor type 3 (Homo sapiens, UniProt P49682).
T1 sequence (P49682 whole entry): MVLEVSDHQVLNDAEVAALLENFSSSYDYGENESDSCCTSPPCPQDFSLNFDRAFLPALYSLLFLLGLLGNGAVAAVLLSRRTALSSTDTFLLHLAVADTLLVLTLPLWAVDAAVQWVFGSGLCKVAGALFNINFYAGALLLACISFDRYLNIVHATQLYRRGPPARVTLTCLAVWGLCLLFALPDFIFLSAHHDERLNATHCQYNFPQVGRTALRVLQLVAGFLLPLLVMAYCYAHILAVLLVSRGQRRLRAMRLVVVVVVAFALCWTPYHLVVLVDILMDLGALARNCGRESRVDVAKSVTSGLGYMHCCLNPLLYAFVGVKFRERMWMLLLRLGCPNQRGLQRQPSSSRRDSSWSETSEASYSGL

Row | IC50 [nM] | SMILES
1 | 686 | CCOC(=O)CC(c1ccc2c(c1)CCO2)N(Cc1ccc(OCCN2C(=O)CCC2=O)c(OC)c1)CC(C)C (centres undefined)
2 | 40 | COc1cc(CN(CC2CC2)C(CC(=O)O)c2ccc(Cl)c(F)c2)ccc1SCCN1C(=O)CCC1=O (centres undefined)
3 | 81 | CCCN(Cc1ccc(OCCN2C(=O)CCC2=O)c(CC)c1)C(CC(=O)O)c1ccc(Cl)c(Cl)c1 (centres undefined)
4 | 179 | COc1cc(CN(CC2CCCC2)C(CC(=O)O)c2ccc(Cl)cc2)ccc1CCCN1C(=O)CCC1=O (centres undefined)
5 | 187 | COc1cc(CN(CC2CCCCC2)[C@@H](CC(=O)O)c2ccc(Cl)c(Cl)c2)ccc1OCCN1C(=O)CN(C)C1=O
6 | 495 | CCCN(Cc1ccc(OCCN2C(=O)CCC2=O)c(OC)c1)[C@H](C(=O)O)c1ccc(Cl)c(Cl)c1
7 | 295 | CCN(Cc1ccc(OCCN2C(=O)CCC2=O)c(OC)c1)C(c1ccc(Cl)cc1)C(C)(C)C(=O)O (centres undefined)
8 | 467 | COc1cc(CN(CC2CCCC2)C(C(=O)O)c2ccc(Cl)cc2)ccc1OCCN1C(=O)CCC1=O (centres undefined)
9 | 435 | O=C(O)CC(c1ccc(Cl)c(Cl)c1)N(Cc1ccc(OCCN2C(=O)CCC2=O)c(F)c1)CC1CCCCC1 (centres undefined)

Reference: ChEMBL document CHEMBL3886958, “Substituted B-amino acid derivatives as CXCR3 receptor antagonists” (2016)
